Reference: ChEMBL document CHEMBL1201862, “PubChem BioAssay data set” (2004)
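In this assay, cells in 96-well plates receive the compound at five concentrations for 48 hours. Endpoints are linearly interpolated between the surrounding concentrations. At the GI50, growth is halved.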 Calls of active or inactive are those of the source. Cut-off read from the data, not from the text of the source: active = GI50 up to about 1.1 µM and inactive = higher.

Tests used:
Assay in all cases: DTP human tumour cell line panel, 48 h
HT-29 = test system: HT-29
IGROV-1 = test system: IGROV-1
T47D = test system: T47D
SNB-19 = test system: SNB-19
SF-295 = test system: SF-295
HCC 2998 = test system: HCC 2998
Malme-3M = test system: Malme-3M
SK-MEL-5 = test system: SK-MEL-5
NCI/ADR-RES = test system: NCI/ADR-RES
UO-31 = test system: UO-31
EKVX = test system: EKVX
UACC-257 = test system: UACC-257
CCRF-CEM = test system: CCRF-CEM
PC-3 = test system: PC-3
SN12C = test system: SN12C
786-0 = test system: 786-0
SK-OV-3 = test system: SK-OV-3
MDA-MB-231 = test system: MDA-MB-231
Hs-578T = test system: Hs-578T
HOP-92 = test system: HOP-92

Measured: GI50

O=S(=O)(O)C(Cc1nc2ccccc2[nH]1)S(=O)(=O)OCCC1S(=O)(=O)OCCOS1(=O)=O (stereo not given)
inactive: HT-29 > 100 µM | IGROV-1 > 100 µM | T47D > 100 µM | SNB-19 > 100 µM | SF-295 > 100 µM | HCC 2998 > 100 µM | Malme-3M > 100 µM | SK-MEL-5 > 100 µM | NCI/ADR-RES > 100 µM | UO-31 > 100 µM | EKVX > 100 µM | UACC-257 > 100 µM | CCRF-CEM > 100 µM | PC-3 > 100 µM | SN12C > 100 µM | 786-0 > 100 µM | SK-OV-3 > 100 µM | MDA-MB-231 > 100 µM | Hs-578T > 100 µM | HOP-92 > 100 µM

CN(Cc1cnc2nc(N)nc(N)c2n1)c1ccc(C(=O)NCCCC(=O)O)cc1
inactive: HT-29 > 100 µM | IGROV-1 16.1 µM | T47D > 100 µM | SNB-19 > 63.1 µM | SF-295 12.3 µM | HCC 2998 > 100 µM | Malme-3M 95.9 µM | SK-MEL-5 49.2 µM | NCI/ADR-RES > 31.4 µM | UO-31 17.5 µM | EKVX > 29 µM | UACC-257 98.9 µM | CCRF-CEM 17.3 µM | SN12C > 100 µM | 786-0 12.5 µM | SK-OV-3 97.9 µM | MDA-MB-231 > 100 µM | Hs-578T > 92.3 µM | HOP-92 > 100 µM
active: PC-3 0.773 µM

COC(=O)C1=C(C)NC2(O)C=CC(=O)C3C(=O)N(c4ccccc4)C(=O)C132 (stereo not given)
inactive: HT-29 23.3 µM | IGROV-1 > 100 µM | T47D 36.8 µM | SNB-19 > 100 µM | SF-295 > 100 µM | HCC 2998 98.2 µM | Malme-3M 37.8 µM | SK-MEL-5 > 100 µM | NCI/ADR-RES > 100 µM | UO-31 > 100 µM | EKVX > 100 µM | UACC-257 90.8 µM | CCRF-CEM 35 µM | PC-3 > 100 µM | SN12C > 100 µM | 786-0 98.2 µM | SK-OV-3 > 100 µM | MDA-MB-231 > 100 µM | Hs-578T > 100 µM | HOP-92 37.3 µM

C=C1CC(Cn2ccc(=O)[nH]c2=O)(c2ccc(Cl)cc2)OC1=O (stereo not given)
inactive: HT-29 5.41 µM | IGROV-1 2.86 µM | T47D 3.03 µM | SNB-19 31.4 µM | SF-295 18.8 µM | HCC 2998 13.9 µM | Malme-3M 2.46 µM | SK-MEL-5 3.05 µM | NCI/ADR-RES 4.56 µM | UO-31 18 µM | EKVX 16.4 µM | UACC-257 3.58 µM | CCRF-CEM 1.63 µM | PC-3 6.64 µM | SN12C 11.6 µM | 786-0 2.04 µM | SK-OV-3 15 µM | MDA-MB-231 14.6 µM | Hs-578T 10.5 µM | HOP-92 2.07 µM

CC(=O)c1cc2c(s1)C(=O)c1sccc1C2=O
inactive: SK-OV-3 1.73 µM
active: HT-29 0.202 µM | IGROV-1 0.168 µM | T47D 0.222 µM | SNB-19 0.0766 µM | SF-295 0.04 µM | HCC 2998 0.218 µM | Malme-3M 0.0163 µM | SK-MEL-5 < 0.0113 µM | NCI/ADR-RES 0.056 µM | UO-31 0.0314 µM | EKVX 0.118 µM | UACC-257 0.0146 µM | CCRF-CEM 0.0392 µM | PC-3 0.0568 µM | SN12C 0.0156 µM | 786-0 0.195 µM | MDA-MB-231 0.0346 µM | Hs-578T 0.0365 µM | HOP-92 0.294 µM

Cc1cccc(C[C@@]2(SCc3ccccc3)C(C)(C)[C@@H]3CC[C@@]2(C)C3)n1
inactive: HT-29 15 µM | IGROV-1 15.1 µM | T47D 7.26 µM | SNB-19 16.3 µM | SF-295 14 µM | HCC 2998 15.4 µM | Malme-3M 15.5 µM | SK-MEL-5 15.9 µM | NCI/ADR-RES 13.8 µM | UO-31 19.4 µM | EKVX 17.6 µM | UACC-257 14.1 µM | CCRF-CEM 12.9 µM | PC-3 20 µM | SN12C 16.3 µM | 786-0 17.6 µM | SK-OV-3 20.4 µM | MDA-MB-231 14 µM | Hs-578T 19.7 µM | HOP-92 14.3 µM

O=C(CCc1ccc(O)c(O)c1)NCCc1cc(O)c(O)c(O)c1
inactive: HT-29 17.9 µM | IGROV-1 54.1 µM | T47D 70.8 µM | SNB-19 > 100 µM | SF-295 19 µM | HCC 2998 > 100 µM | Malme-3M > 100 µM | SK-MEL-5 23.3 µM | NCI/ADR-RES 18.1 µM | UO-31 44.6 µM | EKVX 22.9 µM | UACC-257 50.1 µM | CCRF-CEM 44.5 µM | PC-3 > 100 µM | SN12C 17.9 µM | 786-0 18.6 µM | SK-OV-3 > 100 µM | MDA-MB-231 14.5 µM | Hs-578T 78.3 µM | HOP-92 > 100 µM
